Each structure is given as a SMILES string.

The source of these data is patent US20070082880A1 (priority 2005, published 2007).

This assay concerns the target T1, human PKCθ full length enzyme (Homo sapiens, UniProt Q04759).
T1 construct: human PKCθ full length enzyme (Panvera Catalog No. P2996); purchased Panvera P2996
The experiment in a line: PKCθ IMAP Assay. It is filed as biochemical. The conditions noted are these: average value when one or more samples were tested; ATP 6 uM, PKCθ 1 nM. Summed up: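 IMAP fluorescence polarization after 20 min with binding beads measured phosphorylation of 100 nM 5FAM-peptide. Reactions held 1 nM full-length human PKCθ, 6 uM ATP, 5% DMSO and DTT-containing buffer, 25 min at room temperature. Compounds tested as 2:1 serial dilutions; controls lacked ATP or enzyme.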

T1 sequence (Q04759 whole entry): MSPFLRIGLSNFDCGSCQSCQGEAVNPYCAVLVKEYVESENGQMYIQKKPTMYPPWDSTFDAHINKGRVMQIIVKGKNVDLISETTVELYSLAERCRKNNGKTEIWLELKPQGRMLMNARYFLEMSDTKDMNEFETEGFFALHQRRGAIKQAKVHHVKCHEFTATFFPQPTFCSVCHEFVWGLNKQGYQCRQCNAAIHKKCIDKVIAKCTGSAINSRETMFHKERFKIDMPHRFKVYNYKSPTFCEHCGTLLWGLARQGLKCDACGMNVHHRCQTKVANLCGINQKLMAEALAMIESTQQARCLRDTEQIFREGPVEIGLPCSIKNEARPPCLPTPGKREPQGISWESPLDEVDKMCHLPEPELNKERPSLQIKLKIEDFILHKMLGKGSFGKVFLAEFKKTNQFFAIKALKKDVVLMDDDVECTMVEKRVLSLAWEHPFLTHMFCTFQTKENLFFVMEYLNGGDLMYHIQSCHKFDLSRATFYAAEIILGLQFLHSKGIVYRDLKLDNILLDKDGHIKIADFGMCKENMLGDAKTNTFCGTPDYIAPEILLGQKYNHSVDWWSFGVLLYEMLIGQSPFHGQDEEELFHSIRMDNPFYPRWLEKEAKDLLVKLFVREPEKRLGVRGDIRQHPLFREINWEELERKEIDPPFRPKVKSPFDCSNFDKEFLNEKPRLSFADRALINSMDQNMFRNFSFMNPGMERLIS

What is called IC50 is the concentration needed to halve the response being measured. A lower IC50 goes with higher potency. `COc1ccc(-c2cc3c(Nc4ccc5[nH]ccc5c4)c(C#N)cnc3s2)cc1C=O` [Compound 337, 2-(3-formyl-4-methoxyphenyl)-4-(1H-indol-5-ylamino)thieno[2,3-b]pyridine-5-carbonitrile] registered an IC50 of 136 nM. The value for `CN(C)c1ccc(-c2cc3c(Nc4ccc5[nH]ccc5c4)c(C#N)cnc3s2)cc1` [Compound 111, 2-[4-(dimethylamino)phenyl]-4-(1H-indol-5-ylamino)thieno[2,3-b]pyridine-5-carbonitrile] was 370 nM; that for `Cc1c(Nc2c(C#N)cnc3sc(I)c(C)c23)ccc2[nH]ccc12` [Compound 318, 2-Iodo-3-methyl-4-[(4-methyl-1H-indol-5-yl)amino]thieno[2,3-b]pyridine-5-carbonitrile] was 80 nM. For `Cc1c(Nc2c(C#N)cnc3sc(-c4cccc(NS(C)(=O)=O)c4)c(C)c23)ccc2[nH]ccc12` [Compound 426, N-(3-{5-cyano-3-methyl-4-[(4-methyl-1H-indol-5-yl)amino]thieno[2,3-b]pyridin-2-yl}phenyl)methanesulfonamide] the value was 119 nM; for `CCCCOc1ccccc1-c1cc2c(Nc3ccc4[nH]ccc4c3C)c(C#N)cnc2s1` [Compound 381, 2-(2-butoxyphenyl)-4-[(4-methyl-1H-indol-5-yl)amino]thieno[2,3-b]pyridine-5-carbonitrile], 1980 nM; for `Cc1c(Nc2c(C#N)cnc3sc(/C=C/C(=O)N(C)CCN(C)C)cc23)ccc2[nH]ccc12` [Compound 312, (2E)-3-{5-cyano-4-[(4-methyl-1H-indol-5-yl)amino]thieno[2,3-b]pyridin-2-yl}-N-[2-(dimethylamino)ethyl]-N-methylacrylamide], 151 nM. Take `Cc1c(Nc2c(C#N)cnc3sc(-c4ccc(S(N)(=O)=O)cc4)c(C)c23)ccc2[nH]ccc12` [Compound 413, 4-{5-cyano-3-methyl-4-[(4-methyl-1H-indol-5-yl)amino]thieno[2,3-b]pyridin-2-yl}benzenesulfonamide]: the IC50 amounted to 7 nM. Against the preceding molecule, the IC50 is about 22-fold lower.

`CCCCNC(=O)Nc1ccc(-c2cc3c(Nc4ccc5[nH]ccc5c4)c(C#N)cnc3s2)cc1` [Compound 334, N-butyl-N′-{4-[5-cyano-4-(1H-indol-5-ylamino)thieno[2,3-b]pyridin-2-yl]phenyl}urea] had an IC50 of more than 12500 nM. For `Cc1c(Nc2c(C#N)cnc3sc(C(=O)NC4CCNCC4)cc23)ccc2[nH]ccc12` [Compound 266, 5-cyano-4-[(4-methyl-1H-indol-5-yl)amino]-N-piperidin-4-ylthieno[2,3-b]pyridine-2-carboxamide] the value was 44 nM; for `Cc1c(Nc2c(C#N)cnc3sc(-c4ccccc4OCCCN(C)C)cc23)ccc2[nH]ccc12` [Compound 383, 2-{2-[3-(dimethylamino)propoxy]phenyl}-4-[(4-methyl-1H-indol-5-yl)amino]thieno[2,3-b]pyridine-5-carbonitrile], 64 nM.

In turn, `N#Cc1cnc2sc(-c3csc(CN4CC[C@H](O)C4)c3)cc2c1Nc1ccc2[nH]ccc2c1` [Compound 157, 2-(5-{[(3S)-3-hydroxypyrrolidin-1-yl]methyl}-3-thienyl)-4-(1H-indol-5-ylamino)thieno[2,3-b]pyridine-5-carbonitrile] gave an IC50 of 44 nM. The value for `N#Cc1cnc2sc(CN3CCc4ccccc4C3)cc2c1Nc1ccc2[nH]ccc2c1` [Compound 268, 2-(3,4-dihydroisoquinolin-2(1H)-ylmethyl)-4-(1H-indol-5-ylamino)thieno[2,3-b]pyridine-5-carbonitrile] was 1250 nM; that for `Cc1c(Nc2c(C#N)cnc3sc(-c4ccc(S(=O)(=O)NCCN(C)C)cc4)cc23)ccc2[nH]ccc12` [Compound 345, 4-{5-cyano-4-[(4-methyl-1H-indol-5-yl)amino]thieno[2,3-b]pyridin-2-yl}-N-[2-(dimethylamino)ethyl]benzenesulfonamide] was 31 nM; that for `Cc1c(Nc2c(C#N)cnc3sc(C(=O)N4CCN(C)CC4)cc23)ccc2[nH]ccc12` [Compound 256, 4-[(4-methyl-1H-indol-5-yl)amino]-2-[(4-methylpiperazin-1-yl)carbonyl]thieno[2,3-b]pyridine-5-carbonitrile] was 334 nM. For `Cc1c(Nc2c(C#N)cnc3sc(-c4ccccc4CN(C)C)cc23)ccc2[nH]ccc12` [Compound 156, 2-{2-[(dimethylamino)methyl]phenyl}-4-[(4-methyl-1H-indol-5-yl)amino]thieno[2,3-b]pyridine-5-carbonitrile] the value was 93 nM.

As for `Cc1c(Nc2c(C#N)cnc3sc(/C=C/C(=O)N4CC[C@@H](N(C)C)C4)cc23)ccc2[nH]ccc12` [Compound 300, 2-{(1E)-3-[(3R)-3-(dimethylamino)pyrrolidin-1-yl]-3-oxoprop-1-en-1-yl}-4-[(4-methyl-1H-indol-5-yl)amino]thieno[2,3-b]pyridine-5-carbonitrile], the half-maximal inhibitory concentration (IC50) was 175 nM. For `CON(C)C(=O)c1ccc(-c2cc3c(Nc4ccc5[nH]ccc5c4C)c(C#N)cnc3s2)cc1` [Compound 357, 4-{5-cyano-4-[(4-methyl-1H-indol-5-yl)amino]thieno[2,3-b]pyridin-2-yl}-N-methoxy-N-methylbenzamide] the value was 48 nM. With `Cc1c(Nc2c(C#N)cnc3sc(-c4ccc5cc[nH]c5c4)cc23)ccc2[nH]ccc12` [Compound 521, 2-(1H-indol-6-yl)-4-[(4-methyl-1H-indol-5-yl)amino]thieno[2,3-b]pyridine-5-carbonitrile], 37 nM corresponded to half-maximal inhibition (IC50). Molecule `N#Cc1cnc2sc(-c3cccc(CN4CCCCC4)c3)cc2c1Nc1ccc2[nH]ccc2c1` [Compound 160, 4-(1H-indol-5-ylamino)-2-[3-(piperidin-1-ylmethyl)phenyl]thieno[2,3-b]pyridine-5-carbonitrile] displayed a concentration for half-maximal inhibition (IC50) of 360 nM.

On to `CN1CCN(C/C=C/c2cc3c(Nc4ccc5[nH]ccc5c4)c(C#N)cnc3s2)CC1` [Compound 277, 4-(1H-indol-5-ylamino)-2-[(1E)-3-(4-methylpiperazin-1-yl)prop-1-en-1-yl]thieno[2,3-b]pyridine-5-carbonitrile], for which the IC50 came to 304 nM. For `N#Cc1cnc2sc(-c3cccc(CN4CCN(CCn5ccnc5)CC4)c3)cc2c1Nc1ccc2[nH]ccc2c1` [Compound 175, 2-[3-({4-[2-(1H-imidazol-1-yl)ethyl]piperazin-1-yl}methyl)phenyl]-4-(1H-indol-5-ylamino)thieno[2,3-b]pyridine-5-carbonitrile] the value was 280 nM.

Turning to `CCCOc1c(C=O)cc(C)cc1-c1cc2c(Nc3ccc4[nH]ccc4c3C)c(C#N)cnc2s1` [Compound 379, 2-(3-formyl-5-methyl-2-propoxyphenyl)-4-[(4-methyl-1H-indol-5-yl)amino]thieno[2,3-b]pyridine-5-carbonitrile], the IC50 came to 169 nM.

Molecule `Cc1c(Nc2c(C#N)cnc3scc(Br)c23)ccc2[nH]ccc12` [Compound 325, 3-bromo-4-[(4-methyl-1H-indol-5-yl)amino]thieno[2,3-b]pyridine-5-carbonitrile] displayed an IC50 of 15 nM. For `Cc1c(Nc2c(C#N)cnc3sc(-c4ccc(OC[C@H](C)O)cc4)cc23)ccc2[nH]ccc12` [Compound 488, 2-(4-{[(2S)-2-hydroxypropyl]-oxy}phenyl)-4-[(4-methyl-1H-indol-5-yl)amino]thieno[2,3-b]pyridine-5-carbonitrile] the value was 200 nM.
